Tests used:
Bemisia tabaci, GUA MIX [1] = experiment: Bioassay: B. tabaci pupae protein on one tomato plant treated with cis-jasmone and PBO; format: in vivo; settings: for μg (Av) Total Protein (B. tabaci pupae): one tomato plant, ten adult whiteflies, ~16 days
Description: (§1) In all bioassay experiments the control plants were sprayed with deionised water. Initially seven treatments were used (Table 1) to test all chemical variables. All treatments were applied hydraulically with a spray simulator after which the plants were separated according to treatment (with cis-jasmone controls being separated) and left for 2 hours prior to insect application.
(§2) Analysis of protein in each treatment was conducted using Bradford Reagent: the data were analysed using the computer programme ‘GraFit’ (Erithacus software, Berkeley). To calculate the calibration curve a single logarithmic curve was used with regression analysis taking the values of the treatment wells (averages of the three readings taken: technical replicates).
(§3) A new method for the investigation of the development of whitefly to the pupal stage on tomatoes and cotton was used. […] These were checked for protein after ˜16 days using Bradford reagent.
(§4) Adults were added to the plant 2 h after treatment, and removed after 24 h. The eggs laid were then left for 16-18 days until they reached the pupal stage. The total pupal protein on the plant was tested using the Bradford reagent.

aphid (M. persicae) = experiment: Bioassay: M. persicae protein on potato, pepper and black mustard plants treated with BABA and/or PBO; format: in vivo, Myzus persicae; settings: 3 adult apterous aphids per plant, 3 mM BABA root drench, PBO E spray, 7 days
Description: In all bioassay experiments the control plants were sprayed with deionised water. Initially seven treatments were used (Table 1b) to test all chemical variables. […] Analysis of protein in each treatment was conducted using Bradford Reagent: the data were analysed using the computer programme ‘GraFit’ (Erithacus software, Berkeley). To calculate the calibration curve a single logarithmic curve was used with regression analysis taking the values of the treatment wells (averages of the three readings taken: technical replicates). Laboratory tests were undertaken to compare effects of combined and single treatments of PBO and BABA on control of aphid (M. persicae) on potato, pepper, and black mustard and whitefly (B. tabaci) on cotton and tomato. All tests included untreated and blank (water) controls, and both single and combined applications of PBO and BABA. […] To investigate developmental/fecundity effects of BABA+/−PBO E (see Table 1) on Myzus persicae when applied to plants, adults were added to the plants and then using Bradford reagent, the amount of aphid protein present on the plants 7 days after treatment was measured. Esterase levels were also tested after the same interval to check for the possible induction of metabolic enzymes when using BABA. Aphids were brushed from all plants and each leaf checked individually to ensure none remained. The aphid mass for each treatment was weighed before total protein was assessed (total from all five plants in the treatment).

whitefly (B. tabaci) = experiment: Bioassay: B. tabaci pupae protein on cotton and tomato plants treated with BABA and/or PBO; format: in vivo, Bemisia tabaci; settings: 3 mM BABA root drench, PBO E spray
Description: In all bioassay experiments the control plants were sprayed with deionised water. Initially seven treatments were used (Table 1b) to test all chemical variables. […] Analysis of protein in each treatment was conducted using Bradford Reagent: the data were analysed using the computer programme ‘GraFit’ (Erithacus software, Berkeley). To calculate the calibration curve a single logarithmic curve was used with regression analysis taking the values of the treatment wells (averages of the three readings taken: technical replicates). Laboratory tests were undertaken to compare effects of combined and single treatments of PBO and BABA on control of aphid (M. persicae) on potato, pepper, and black mustard and whitefly (B. tabaci) on cotton and tomato. All tests included untreated and blank (water) controls, and both single and combined applications of PBO and BABA. […] Adults were added to the plant 2 days after treatment, and removed after 24 h. The eggs laid were then left for 16-18 days until they reached the pupal stage. The total pupal protein on the plant was tested using the Bradford reagent.

Myzus persicae, US1L = experiment: Glasshouse simulator trial: M. persicae protein on pepper plants treated with cis-jasmone and PBO; format: in vivo; settings: for μg (Av) Total Protein (M. persicae): simulator, 25 pepper plants per treatment, three adult apterous aphids per plant, 7 days
Description: as §1, §2
To investigate developmental/fecundity effects of cis-jasmone+/−PBO (see Table 1) on Myzus persicae when applied to sweet peppers, adults were added to the plants and then using Bradford reagent, the amount of aphid protein present on the plants 7 days after treatment was measured. Esterase levels were also tested after the same interval to check for the possible induction of metabolic enzymes when using cis-jasmone. Aphids were brushed from all plants and each leaf checked individually to ensure none remained. The aphid mass for each treatment was weighed before total protein was assessed (total from all […] plants in the treatment).
Myzus persicae were applied to sweet peppers at the rate of three adults per plant. Aphids were brushed from all plants and each leaf checked individually to ensure none remained. The aphid mass for each treatment was assessed for total protein (total from all 25 plants in the treatment) using Bradford reagent. The amount of aphid protein present on the plants 7 days after treatment was measured. Plants were put into glasshouse simulators (one/treatment) and kept at 28° C., 12 L: […] and 80% R.H.

Bemisia tabaci, GUA MIX [2] = experiment: Glasshouse simulator trial: B. tabaci pupae protein on tomato plants treated with cis-jasmone and PBO; format: in vivo; settings: for μg (Av) Total Protein (B. tabaci pupae): simulator, ten tomato plants per treatment, ten adult whiteflies per plant, ~16 days
Description: as §1, §2, §3, §4
As described above 10 adult females were released on to each tomato plant, ten/treatment and after ˜16 days pupae were removed using a scalpel blade. These were checked for total protein using Bradford reagent. Plants were put into glasshouse simulators (one/treatment) and kept at 28° C., 12 L: […] and 80% R.H.

Aphis gossypii = experiment: A. gossypii protein on cotton plants treated with propyl gallate and cis-jasmone; format: in vivo; settings: five cotton plants, 3 adult apterous aphids per plant, 7 days

**Q.** With `CCCCOCCOCCOCc1cc2c(cc1CCC)OCO2` [PBO, 2-(2-butoxyethoxy)ethyl 6-propylpiperonyl ether] as the compound, how does the “effect of adding PBO to the cis-jasmone treatment (in words)” value (Bemisia tabaci, GUA MIX [1]; B. tabaci on tomato, bioassay) read?
**A.** The value was “clear and highly significant (p<0.001) synergistic effect”.

**Q.** What about the “Av. Total Insect Protein μg” value (Bemisia tabaci, GUA MIX [1]; Bioassay, Bemisia tabaci (GUA MIX), average of weeks 1 to 3) of the same compound?
**A.** Its value is 0.419 µg.

**Q.** What about the “μg (Av) Total Protein (B. tabaci pupae)” value (Bemisia tabaci, GUA MIX [1]; week 1) of the same compound?
**A.** The value was 0.28 µg.

**Q.** What about the “μg (Av) Total Protein (B. tabaci pupae)” value (Bemisia tabaci, GUA MIX [1]; week 2) of the same compound?
**A.** Its value is 0.28 µg.

**Q.** And the “μg (Av) Total Protein (B. tabaci pupae)” value (Bemisia tabaci, GUA MIX [1]; week 3)?
**A.** The value was 0.3 µg.

**Q.** And the “Protein A (Av)” value (aphid (M. persicae); five black mustard plants, week 1)?
**A.** The value was 19.30 µg.

**Q.** And the “Protein A (Av)” value (aphid (M. persicae); five black mustard plants, week 2)?
**A.** The value was 18.90 µg.

**Q.** And the “Protein A (Av)” value (aphid (M. persicae); five black mustard plants, week 3)?
**A.** The value was 18.00 µg.

**Q.** What about the “Protein A (Av)” value (aphid (M. persicae); five pepper plants, week 1) of the same compound?
**A.** The value was 22.10 µg.

**Q.** And the “Protein A (Av)” value (aphid (M. persicae); five pepper plants, week 2)?
**A.** Its value is 21.60 µg.

**Q.** And the “Protein A (Av)” value (aphid (M. persicae); five pepper plants, week 3)?
**A.** Its value is 23.50 µg.

**Q.** And the “Protein A (Av)” value (aphid (M. persicae); five potato plants, week 1)?
**A.** The value was 17.60 µg.

**Q.** And the “Protein A (Av)” value (aphid (M. persicae); five potato plants, week 2)?
**A.** The value was 22.30 µg.

**Q.** And the “Protein A (Av)” value (aphid (M. persicae); five potato plants, week 3)?
**A.** Its value is 19.20 µg.

**Q.** And the “optimal concentration of PBO for esterase inhibition” value (esterase)?
**A.** Its value is 1000 ppm.

**Q.** And the “Protein WF (Av)” value (whitefly (B. tabaci); cotton plants, ~16 days, week 1)?
**A.** Its value is 0.14 µg.

**Q.** And the “Protein WF (Av)” value (whitefly (B. tabaci); cotton plants, ~16 days, week 2)?
**A.** The value was 0.14 µg.

**Q.** What about the “Protein WF (Av)” value (whitefly (B. tabaci); cotton plants, ~16 days, week 3) of the same compound?
**A.** Its value is 0.15 µg.

**Q.** What about the “Protein WF (Av)” value (whitefly (B. tabaci); tomato plants, week 1) of the same compound?
**A.** Its value is 0.23 µg.

**Q.** What about the “Protein WF (Av)” value (whitefly (B. tabaci); tomato plants, week 2) of the same compound?
**A.** The value was 0.33 µg.

**Q.** And the “Protein WF (Av)” value (whitefly (B. tabaci); tomato plants, week 3)?
**A.** Its value is 0.32 µg.

**Q.** And the “effect of addition of PBO to cis jasmone on efficacy (in words)” value (Myzus persicae, US1L; M. persicae on pepper, simulator trial)?
**A.** The value was “does not significantly increase efficacy”.

**Q.** And the “Av. Total Insect Protein μg” value (Myzus persicae, US1L; Simulator, M. persicae (US1L) on Pepper (BellBoy), average of weeks 1 to 3)?
**A.** The value was 14.406 µg.

**Q.** And the “μg (Av) Total Protein (M. persicae)” value (Myzus persicae, US1L; week 1)?
**A.** Its value is 14.72 µg.

**Q.** And the “μg (Av) Total Protein (M. persicae)” value (Myzus persicae, US1L; week 2)?
**A.** The value was 14.2 µg.

**Q.** What about the “μg (Av) Total Protein (M. persicae)” value (Myzus persicae, US1L; week 3) of the same compound?
**A.** The value was 14.3 µg.

**Q.** What about the “effect of addition of PBO to cis-jasmone on reduction of insect protein (in words)” value (Bemisia tabaci, GUA MIX [2]; B. tabaci on tomato, simulator trial) of the same compound?
**A.** Its value is “potentiates the effect of cis-jasmone”.

**Q.** And the “Av. Total Insect Protein μg” value (Bemisia tabaci, GUA MIX [2]; Simulator, Bemisia tabaci (GUA MIX) on Tomato (Carousel), average of weeks 1 to 3)?
**A.** Its value is 0.156 µg.

**Q.** And the “μg (Av) Total Protein (B. tabaci pupae)” value (Bemisia tabaci, GUA MIX [2]; week 1)?
**A.** The value was 0.165 µg.

**Q.** And the “μg (Av) Total Protein (B. tabaci pupae)” value (Bemisia tabaci, GUA MIX [2]; week 2)?
**A.** The value was 0.169 µg.

**Q.** What about the “μg (Av) Total Protein (B. tabaci pupae)” value (Bemisia tabaci, GUA MIX [2]; week 3) of the same compound?
**A.** The value was 0.134 µg.

**Q.** And the “Protein A (Av)” value (Aphis gossypii; week 1)?
**A.** Its value is 20.05 µg.

**Q.** And the “Protein A (Av)” value (Aphis gossypii; week 2)?
**A.** The value was 15.1 µg.

**Q.** And the “Protein A (Av)” value (Aphis gossypii; week 3)?
**A.** Its value is 16.3 µg.
